# Measurements from the supplement of paper PMC10307832.
# Columns and labels:
# Assay in all cases: relative viability (nuclei count vs DMSO), 5 days (fraction); higher = more cells survive
# [1] = system: NCI-H1355
# Summary of the method: (§1)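 Relative viability divides the nuclei count in treated wells by that in vehicle wells. Lung cancer cell lines were seeded in 1536-well plates, dosed by pin tool the next day, and fixed and stained after 5 days in one step with final 0.05% Triton X-100, 1% formaldehyde and 1 ug/ml Hoechst. Dosing was a single drug or a fixed anchor-drug dose plus five library-drug doses (not always all listed) in √10 steps, and values are medians of duplicate plates imaged at 4×.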
# [2] = system: NCI-H1792
# Summary of the method: as §1
# [3] = system: NCI-H1651
# Summary of the method: as §1
# [4] = system: NCI-H2347
# Summary of the method: as §1
# [5] = system: NCI-H460
# Summary of the method: as §1
# [6] = system: NCI-H661
# Summary of the method: as §1
# [7] = system: NCI-H727
# Summary of the method: as §1
# [8] = system: NCI-H596
# Summary of the method: as §1
# [9] = system: NCI-H1915
# Summary of the method: as §1
# [10] = system: PC-14
# Summary of the method: as §1
# [11] = system: SK-MES-1
# Summary of the method: as §1
smiles,measurement,setting,value
COc1cc2nccc(Oc3ccc(NC(=O)Nc4cc(C)on4)c(Cl)c3)c2cc1OC [Tivozanib] + Nc1ncn([C@H]2C[C@H](O)[C@@H](CO)O2)c(=O)n1 [Decitabine] (partner 2 µM),relative viability,[1]; first compound 0.05 µM,0.334
same,relative viability,[1]; first compound 0.1581 µM,0.333
same,relative viability,[1]; first compound 0.5 µM,0.363
same,relative viability,[2]; first compound 0.005 µM,0.514
same,relative viability,[2]; first compound 0.01581 µM,0.538
same,relative viability,[2]; first compound 0.05 µM,0.574
same,relative viability,[2]; first compound 0.5 µM,0.499
same,relative viability,[3]; first compound 0.005 µM,0.572
same,relative viability,[3]; first compound 0.01581 µM,0.551
same,relative viability,[3]; first compound 0.05 µM,0.675
same,relative viability,[3]; first compound 0.1581 µM,0.438
same,relative viability,[3]; first compound 0.5 µM,0.524
same,relative viability,[4]; first compound 0.005 µM,0.569
same,relative viability,[4]; first compound 0.01581 µM,0.594
same,relative viability,[4]; first compound 0.05 µM,0.62
same,relative viability,[4]; first compound 0.1581 µM,0.57
same,relative viability,[4]; first compound 0.5 µM,0.659
same,relative viability,[5]; first compound 0.005 µM,0.449
same,relative viability,[5]; first compound 0.01581 µM,0.468
same,relative viability,[5]; first compound 0.05 µM,0.48
same,relative viability,[5]; first compound 0.1581 µM,0.62
same,relative viability,[5]; first compound 0.5 µM,0.482
same,relative viability,[6]; first compound 0.005 µM,0.527
same,relative viability,[6]; first compound 0.01581 µM,0.557
same,relative viability,[6]; first compound 0.05 µM,0.592
same,relative viability,[6]; first compound 0.1581 µM,0.514
same,relative viability,[6]; first compound 0.5 µM,0.552
same,relative viability,[7]; first compound 0.005 µM,0.836
same,relative viability,[7]; first compound 0.01581 µM,0.929
same,relative viability,[7]; first compound 0.05 µM,0.85
same,relative viability,[7]; first compound 0.1581 µM,0.59
same,relative viability,[7]; first compound 0.5 µM,0.905
same,relative viability,[8]; first compound 0.005 µM,0.975
same,relative viability,[8]; first compound 0.01581 µM,0.994
same,relative viability,[8]; first compound 0.05 µM,1.15
same,relative viability,[8]; first compound 0.5 µM,1.03
same,relative viability,[9]; first compound 0.005 µM,0.281
same,relative viability,[9]; first compound 0.01581 µM,0.281
same,relative viability,[9]; first compound 0.05 µM,0.253
same,relative viability,[9]; first compound 0.1581 µM,0.293
same,relative viability,[9]; first compound 0.5 µM,0.268
same,relative viability,[10]; first compound 0.005 µM,0.195
same,relative viability,[10]; first compound 0.01581 µM,0.214
same,relative viability,[10]; first compound 0.05 µM,0.216
same,relative viability,[10]; first compound 0.1581 µM,0.252
same,relative viability,[10]; first compound 0.5 µM,0.153
same,relative viability,[11]; first compound 0.005 µM,0.363
same,relative viability,[11]; first compound 0.01581 µM,0.363
same,relative viability,[11]; first compound 0.05 µM,0.371
same,relative viability,[11]; first compound 0.1581 µM,0.393
same,relative viability,[11]; first compound 0.5 µM,0.435
